The values that follow come from PMC10353061 (ACS Pharmacology & Translational Science, 2023).

Broadly, the EC50 is the concentration needed to bring the measured effect to its halfway point.

Test [1] deals with HCT116 colon cancer cell. The conditions noted are these: cited from earlier work.
Test [2] has as its system SW620 cells. The experiment in a line: Inhibition of SW620 cells. The conditions noted are these: Homo sapiens, SW-620, in the combination 9 at constant 0.25 μM. The test is classed as cell-based.

Take `COC(=O)c1ccc(NS(=O)(=O)c2ccc(Br)cc2)cc1` [Compound 1]: the “IC50, HCT116 colon cancer cell growth” value in test [1] was “submicromolar”.
For `O=c1[nH]cc(F)c(=O)[nH]1` [Compound 5-FU, 5-fluorouracil, reference compound], the EC50 in test [2] worked out at 103 µM.
